#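 Growth conditions: 96-well plates. Treatment: test compound, 48 hours, 5 concentrations. Analysis: linear interpolation between bracketing concentrations; unreached endpoints set to highest concentration. At the GI50, growth is halved.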 The source made the active and inactive calls. Rule as the data show it: active = GI50 up to about 1.1 µM and inactive = higher.
# Assays:
# Assay in all cases: growth of human tumour cells (NCI), 48 h
# 786-0 = tested on: 786-0
# A498 = tested on: A498
# A549 = tested on: A549
# ACHN = tested on: ACHN
# BT-549 = tested on: BT-549
# CAKI-1 = tested on: CAKI-1
# CCRF-CEM = tested on: CCRF-CEM
# COLO 205 = tested on: COLO 205
# DU-145 = tested on: DU-145
# EKVX = tested on: EKVX
# HCT-116 = tested on: HCT-116
# HCT-15 = tested on: HCT-15
# HL-60 = tested on: HL-60
# HOP-62 = tested on: HOP-62
# HOP-92 = tested on: HOP-92
# HT-29 = tested on: HT-29
# Hs-578T = tested on: Hs-578T
# IGROV-1 = tested on: IGROV-1
# K562 = tested on: K562
# KM12 = tested on: KM12
# LOX IMVI = tested on: LOX IMVI
# M14 = tested on: M14
# MCF7 = tested on: MCF7
# MDA-MB-231 = tested on: MDA-MB-231
# MDA-MB-435 = tested on: MDA-MB-435
# MDA-N = tested on: MDA-N
# MOLT-4 = tested on: MOLT-4
# Malme-3M = tested on: Malme-3M
# NCI-H226 = tested on: NCI-H226
# NCI-H23 = tested on: NCI-H23
# NCI-H460 = tested on: NCI-H460
# NCI/ADR-RES = tested on: NCI/ADR-RES
# OVCAR-3 = tested on: OVCAR-3
# OVCAR-4 = tested on: OVCAR-4
# OVCAR-5 = tested on: OVCAR-5
# OVCAR-8 = tested on: OVCAR-8
# PC-3 = tested on: PC-3
# RPMI-8226 = tested on: RPMI-8226
# RXF 393 = tested on: RXF 393
# SF-268 = tested on: SF-268
# SF-295 = tested on: SF-295
# SF-539 = tested on: SF-539
# SK-MEL-28 = tested on: SK-MEL-28
# SK-MEL-2 = tested on: SK-MEL-2
# SK-MEL-5 = tested on: SK-MEL-5
# SK-OV-3 = tested on: SK-OV-3
# SN12C = tested on: SN12C
# SNB-19 = tested on: SNB-19
# SR = tested on: SR
# SW-620 = tested on: SW-620
# T47D = tested on: T47D
# TK-10 = tested on: TK-10
# U-251 = tested on: U-251
# UACC-257 = tested on: UACC-257
# UACC-62 = tested on: UACC-62
# UO-31 = tested on: UO-31
# SNB-75 = tested on: SNB-75
# HCC 2998 = tested on: HCC 2998
# NCI-H522 = tested on: NCI-H522
smiles,measurement,setting,value
CN(C)CCCNc1ccc([N+](=O)[O-])c2nc3ccccc3c(N)c12,GI50,786-0,0.385 µM (active)
same,GI50,A498,2.22 µM (inactive)
same,GI50,A549,0.512 µM (active)
same,GI50,ACHN,0.205 µM (active)
same,GI50,BT-549,1.48 µM (inactive)
same,GI50,CAKI-1,2.67 µM (inactive)
same,GI50,CCRF-CEM,0.243 µM (active)
same,GI50,COLO 205,0.243 µM (active)
same,GI50,DU-145,0.308 µM (active)
same,GI50,EKVX,0.755 µM (active)
same,GI50,HCT-116,0.124 µM (active)
same,GI50,HCT-15,0.423 µM
same,GI50,HL-60,0.459 µM (active)
same,GI50,HOP-62,2.36 µM (inactive)
same,GI50,HOP-92,0.516 µM (active)
same,GI50,HT-29,0.225 µM (active)
same,GI50,Hs-578T,3.33 µM (inactive)
same,GI50,IGROV-1,0.659 µM (active)
same,GI50,K562,0.312 µM (active)
same,GI50,KM12,0.436 µM (active)
same,GI50,LOX IMVI,0.36 µM (active)
same,GI50,M14,0.7 µM (active)
same,GI50,MCF7,0.459 µM (active)
same,GI50,MDA-MB-231,0.598 µM (active)
same,GI50,MDA-MB-435,0.718 µM (active)
same,GI50,MDA-N,0.458 µM (active)
same,GI50,MOLT-4,0.278 µM (active)
same,GI50,Malme-3M,0.51 µM (active)
same,GI50,NCI-H226,5.14 µM (inactive)
same,GI50,NCI-H23,0.9 µM (active)
same,GI50,NCI-H460,0.352 µM (active)
same,GI50,NCI/ADR-RES,0.397 µM (active)
same,GI50,OVCAR-3,0.63 µM (active)
same,GI50,OVCAR-4,0.169 µM (active)
same,GI50,OVCAR-5,2.49 µM (inactive)
same,GI50,OVCAR-8,0.483 µM (active)
same,GI50,PC-3,0.394 µM (active)
same,GI50,RPMI-8226,0.266 µM (active)
same,GI50,RXF 393,0.736 µM (active)
same,GI50,SF-268,0.839 µM (active)
same,GI50,SF-295,0.382 µM (active)
same,GI50,SF-539,0.449 µM (active)
same,GI50,SK-MEL-28,2.44 µM (inactive)
same,GI50,SK-MEL-2,1.38 µM (inactive)
same,GI50,SK-MEL-5,1.21 µM (inactive)
same,GI50,SK-OV-3,0.228 µM (active)
same,GI50,SN12C,0.771 µM (active)
same,GI50,SNB-19,0.635 µM (active)
same,GI50,SR,0.23 µM (active)
same,GI50,SW-620,0.22 µM (active)
same,GI50,T47D,0.914 µM (active)
same,GI50,TK-10,2.27 µM (inactive)
same,GI50,U-251,0.738 µM (active)
same,GI50,UACC-257,1.63 µM (inactive)
same,GI50,UACC-62,1.25 µM (inactive)
same,GI50,UO-31,0.942 µM (active)
Cc1nc2c(=O)[nH]ncc2[nH]1,GI50,786-0,> 100 µM (inactive)
same,GI50,A498,> 100 µM (inactive)
same,GI50,A549,> 100 µM (inactive)
same,GI50,ACHN,> 100 µM (inactive)
same,GI50,BT-549,> 100 µM (inactive)
same,GI50,CAKI-1,> 100 µM (inactive)
same,GI50,CCRF-CEM,> 100 µM (inactive)
same,GI50,COLO 205,> 100 µM (inactive)
same,GI50,DU-145,> 100 µM (inactive)
same,GI50,EKVX,> 100 µM (inactive)
same,GI50,HCT-116,> 100 µM (inactive)
same,GI50,HCT-15,> 100 µM
same,GI50,HL-60,64 µM (inactive)
same,GI50,HOP-62,> 100 µM (inactive)
same,GI50,HT-29,> 100 µM (inactive)
same,GI50,Hs-578T,> 100 µM (inactive)
same,GI50,IGROV-1,> 100 µM (inactive)
same,GI50,K562,> 100 µM (inactive)
same,GI50,KM12,84.1 µM (inactive)
same,GI50,M14,> 100 µM (inactive)
same,GI50,MCF7,> 100 µM (inactive)
same,GI50,MDA-MB-231,> 100 µM (inactive)
same,GI50,MDA-MB-435,> 100 µM (inactive)
same,GI50,MDA-N,> 100 µM (inactive)
same,GI50,MOLT-4,> 100 µM (inactive)
same,GI50,NCI-H226,> 100 µM (inactive)
same,GI50,NCI-H23,> 100 µM (inactive)
same,GI50,NCI-H460,> 100 µM (inactive)
same,GI50,NCI/ADR-RES,> 100 µM (inactive)
same,GI50,OVCAR-3,> 100 µM (inactive)
same,GI50,OVCAR-5,> 100 µM (inactive)
same,GI50,OVCAR-8,> 100 µM (inactive)
same,GI50,PC-3,> 100 µM (inactive)
same,GI50,RPMI-8226,> 100 µM (inactive)
same,GI50,RXF 393,> 100 µM (inactive)
same,GI50,SF-268,> 100 µM (inactive)
same,GI50,SF-295,> 100 µM (inactive)
same,GI50,SF-539,> 100 µM (inactive)
same,GI50,SK-MEL-28,> 100 µM (inactive)
same,GI50,SK-MEL-2,> 100 µM (inactive)
same,GI50,SK-MEL-5,> 100 µM (inactive)
same,GI50,SN12C,> 100 µM (inactive)
same,GI50,SNB-19,> 100 µM (inactive)
same,GI50,SNB-75,0.968 µM (active)
same,GI50,SR,> 100 µM (inactive)
same,GI50,SW-620,> 100 µM (inactive)
same,GI50,T47D,> 100 µM (inactive)
same,GI50,TK-10,> 100 µM (inactive)
same,GI50,U-251,> 100 µM (inactive)
same,GI50,UACC-257,> 100 µM (inactive)
same,GI50,UACC-62,> 100 µM (inactive)
same,GI50,UO-31,> 100 µM (inactive)
COC(=O)CN1Cc2cc(C)cc(c2O)CN(CC(=O)OC)Cc2cc(C)cc(c2O)CN(CC(=O)OC)Cc2cc(C)cc(c2O)C1,GI50,786-0,> 100 µM (inactive)
same,GI50,A498,> 51.8 µM (inactive)
same,GI50,A549,> 100 µM (inactive)
same,GI50,ACHN,> 47.1 µM (inactive)
same,GI50,BT-549,> 100 µM (inactive)
same,GI50,CAKI-1,> 100 µM (inactive)
same,GI50,CCRF-CEM,6.76 µM (inactive)
same,GI50,COLO 205,> 54.3 µM (inactive)
same,GI50,DU-145,> 41 µM (inactive)
same,GI50,EKVX,> 100 µM (inactive)
same,GI50,HCC 2998,2.03 µM (inactive)
same,GI50,HCT-116,12.6 µM (inactive)
same,GI50,HCT-15,> 66.4 µM
same,GI50,HL-60,15.4 µM (inactive)
same,GI50,HOP-62,> 40.3 µM (inactive)
same,GI50,HOP-92,> 81.8 µM (inactive)
same,GI50,HT-29,> 47.9 µM (inactive)
same,GI50,Hs-578T,> 100 µM (inactive)
same,GI50,IGROV-1,> 100 µM (inactive)
same,GI50,K562,> 100 µM (inactive)
same,GI50,KM12,> 56.2 µM (inactive)
same,GI50,LOX IMVI,> 65.8 µM (inactive)
same,GI50,M14,> 37.8 µM (inactive)
same,GI50,MCF7,> 42 µM (inactive)
same,GI50,MDA-MB-231,> 36.8 µM (inactive)
same,GI50,MDA-MB-435,> 100 µM (inactive)
same,GI50,MDA-N,> 87.9 µM (inactive)
same,GI50,MOLT-4,> 100 µM (inactive)
same,GI50,Malme-3M,> 100 µM (inactive)
same,GI50,NCI-H226,> 37.4 µM (inactive)
same,GI50,NCI-H23,> 100 µM (inactive)
same,GI50,NCI-H460,0.272 µM (active)
same,GI50,NCI-H522,> 100 µM (inactive)
same,GI50,NCI/ADR-RES,> 100 µM (inactive)
same,GI50,OVCAR-3,> 58.2 µM (inactive)
same,GI50,OVCAR-4,> 100 µM (inactive)
same,GI50,OVCAR-5,26.4 µM (inactive)
same,GI50,OVCAR-8,> 100 µM (inactive)
same,GI50,PC-3,> 32.9 µM (inactive)
same,GI50,RPMI-8226,> 100 µM (inactive)
same,GI50,RXF 393,> 33.7 µM (inactive)
same,GI50,SF-268,> 100 µM (inactive)
same,GI50,SF-295,> 61.8 µM (inactive)
same,GI50,SF-539,> 80.2 µM (inactive)
same,GI50,SK-MEL-28,99.8 µM (inactive)
same,GI50,SK-MEL-2,> 39.8 µM (inactive)
same,GI50,SK-MEL-5,> 57.5 µM (inactive)
same,GI50,SK-OV-3,> 45.5 µM (inactive)
same,GI50,SN12C,> 100 µM (inactive)
same,GI50,SNB-19,> 100 µM (inactive)
same,GI50,SNB-75,> 33.4 µM (inactive)
same,GI50,SW-620,> 87.3 µM (inactive)
same,GI50,T47D,> 20.1 µM (inactive)
same,GI50,TK-10,> 79.8 µM (inactive)
same,GI50,U-251,> 45.8 µM (inactive)
same,GI50,UACC-257,> 100 µM (inactive)
same,GI50,UACC-62,> 100 µM (inactive)
same,GI50,UO-31,> 44 µM (inactive)
